Experiments:
[1] = Particle size distribution, MALVERN MASTERSIZER 3000, Hydro MV wet dispersion (wet analysis); format: physicochemical; conditions: wet analysis method; starting material before milling
Procedure: The particle size distribution for the micronized glycopyrrolate formulations was determined by MALVERN MASTERSIZER® 3000 using the Hydro MV wet dispersion unit as follows: the dispersion unit was filled with iso-octane (2,2,4-trimethylpentane). The pump speed was set to 3000 rpm. Ten millilitres of 0.1% lecithin in iso-octane was added to approximately 10 mg of the micronized glycopyrrolate formulation, this pre-dispersion was then sonicated for 3 minutes using a Sonopuls sonic probe at 50% intensity. The dispersed particles were added to the dispersion unit to reach an obscuration of 5-15%. The optical properties used included a refractive index of 1.52 and an absorption value of 1.0 for the glycopyrrolate, and a refractive index of 1.45 and an absorption value of 1.0 for the magnesium stearate and a refractive index of 1.391 for the iso-octane. Six replicates were performed per measurement.

[2] = Particle size distribution, MALVERN MASTERSIZER 3000, Aero S dry dispersion method at 4 Bar; format: physicochemical; conditions: unmicronised source powder
Procedure: The particle size distribution for unmicronised glycopyrrolate was determined by MALVERN MASTERSIZER analysis (MALVERN MASTERSIZER® 3000, using the Aero S dry dispersion method at 4 Bar) and found to be D10=11.3 μm, D50=98.0 μm, D90=281 μm (see FIG. 1).
The particle size distributions for Formulation 1 (D10=0.283 μm, D50=1.66 μm, D90=5.40 μm) and Formulation 2 (D10=0.270 μm, D50=1.41 μm, D90=3.66 μm were determined by MALVERN MASTERSIZER® analysis (MALVERN MASTERSIZER® 3000, using the Aero S dry dispersion method at 4 Bar). These are reported in FIGS. 4 and 8 respectively and Table 1 below.
The particle size distribution for the micronized glycopyrrolate formulations was determined by MALVERN MASTERSIZER® analysis (MALVERN MASTERSIZER® 3000, using the Aero S dry dispersion method at 4 Bar and a feed rate of between 30-40%). The optical properties used included a refractive index of 1.52 and an absorption value of 1.0.

## C[N+]1(C)CCC(OC(=O)C(O)(c2ccccc2)C2CCCC2)C1 (stereo not shown) [unmicronised glycopyrrolate, glycopyrrolate]
[1]
  D10: 20.6 μm
  D50: 148.7 μm
  D90: 409.7 μm
[2]
  D10: 11.3 μm
  D50: 98.0 μm
  D90: 281 μm
[2]; stored sealed
  cumulative fraction under 5 μm: 4.68%

## magnesium stearate
[1]
  D10: 2.8 μm
  D50: 8.8 μm
  D90: 27.4 μm

Source: patent US10532041B2, “Formulation comprising glycopyrrolate, method and apparatus” (Vectura Limited, priority 2014, dated 2020)
